Experimental data: patent publication US12590322B2, “Devices and methods for mitochondria replacement and for generating cellular therapeutics” (NanoCav, LLC, priority 2018, dated 2026)

Key:
[1] = tested on: BJ cells; experiment: mtDNA depletion by ddC in BJ primary fibroblasts, qPCR verification; type: cell-based, human; settings: for mtDNA levels, % of initial untreated levels: 2.5 μM or 5 μM ddC
Description: FIGS. 11A-11B show generation of mtDNA depleted primary fibroblast lines in BJ cells. FIG. 11A is a bar chart showing that a minimum concentration of 2.5 μM of 2′,3′ dideoxycytidine (ddC), a reverse transcriptase inhibitor, was required to deplete mtDNA to below 5% of the original level, three weeks from initiation of treatment. […] FIG. 11B is a line plot showing the information of FIG. 11A.
(§1) A 1000× stock of 2′,3′-dideoxycytidine (ddC, Sigma, Cat. #D5782) was prepared in water. BJ, ADF, and NDF cells cultured in complete media with 50 µg/ml uridine were added ddC to an appropriate final concentration. Cells were passaged every 3-4 d and fresh ddC was added over the course of 3 weeks. After ddC treatment, total DNA was extracted (Qiagen, Cat. #69504) and mtDNA quantified using SYBR Select Master Mix for CFX (Life Technologies, Cat. #4472942). mtDNA-encoded ND1 was probed with the following primers: forward: […] (SEQ ID NO: 1); reverse: […] (SEQ ID NO: 2). mtDNA levels were normalized to nuclear-encoded GAPDH using the following primers: forward: […] (SEQ ID NO: 3); reverse: […] (SEQ ID NO: 4). qPCR was run on a BioRad CFX Thermal Cycler using the following protocol: 1) 50° C. for 2 min, 2) 95° C. for 2 min, 3) 40 cycles-95° C. for 10 s and 60° C. for 45 s. Samples were compared by calculating ΔΔCT and fold differences.

[2] = tested on: Adult and neonatal human dermal fibroblast (HDF) cells; experiment: mtDNA depletion by ddC in human dermal fibroblasts; type: cell-based; settings: 5 μM ddC, after sixteen days
Text: FIGS. 12A-12C show generation of mtDNA depleted human dermal fibroblasts cells. […] 143 Rho Null (lacking mtDNA) and a control are also shown. […] GAPDH expression, used as a reference gene, was also shown in adult and neonatal human dermal fibroblast (HDF) cells. FIG. 12B is a table showing depletion of mtDNA in HDF adult and HDF neonatal cells at days sixteen and thirty. FIG. 12C is a line plot showing the data of FIG. 12B.
as §1

[3] = tested on: BJs; experiment: Mutation signature comparison of ddC-treated BJs vs BJ parent, 30X whole genome sequencing; type: cell-based, human; settings: for # SNVs / % of Total: 5 μM ddC treated BJs vs BJ parent
Description: A comparison of mutation signatures between 5 μM-ddC treated BJs and the BJ parent with 30× whole genome sequencing.

[4] = 5 μM ddC-treated BJs vs. BJ parent
[5] = ddC-treated cells, whole genome sequencing

Mutation rate [3, 4]: 0.6/MB
Non-synonymous mutations [3, 4]: 26
# SNVs ([3]; Signature 5): 2,230
% of Total ([3]; Signature 5): 42.0%
# SNVs ([3]; Signature 8): 873
% of Total ([3]; Signature 8): 16.0%
# SNVs ([3]; Signature 9): 854
% of Total ([3]; Signature 9): 16.0%
# SNVs ([3]; Signature 16): 200
% of Total ([3]; Signature 16): 4.0%
# SNVs ([3]; Signature 18): 471
% of Total ([3]; Signature 18): 9.0%
abundance of non-synonymous mutations [3, 5]: low abundance
changes in DNA copy number [3, 5]: no changes in DNA copy number
chromosomal breaks [3, 5]: no chromosomal breaks
Structure (SMILES): Nc1ccn([C@H]2CC[C@@H](CO)O2)c(=O)n1 [ddC, 2′,3′-dideoxycytidine]
mtDNA levels, % of initial untreated levels ([1]; three weeks from initiation of treatment): below 0.5%
mtDNA levels, % of initial untreated levels ([1]; two weeks): below 2%
minimum concentration required to deplete mtDNA to below 5% of the original level ([1]; BJ cells, three weeks from initiation of treatment): 2.5 µM
mtDNA depletion [2]: mtDNA depletion
